In US6680295B1, “Method and pharmaceutical composition for prevention and treatment of brain damage” (priority 1994, dated 2004):
No end group written: not given here.

Experiments:
[1] = rat, in vivo
Method: FIG. 15 is a graph showing ^125I -PACAP 38 levels in brain tissue 10 minutes after icv injection, at 1×10^6 cpm ^125I-PACAP38.
This calculation was based on the transport of ^125I-labelled peptide given icv as a bolus but slow injection over 5 min. 1×10^6 cpm ^125I-PACAP38 was injected icv in anesthetized rats, the cpm in the brain tissues 10 min after the injection is shown in FIG. 15.
The labelled peptide was injected into the right lateral ventricle.

[2] = target: T1, PACAP binding sites in rat brain membrane preparations (Rattus norvegicus, UniProt P32215); assay: Radioreceptor assay: displacement of 125I-PACAP27 binding to E18 rat brain membranes; conditions: for displacement of 125I-PACAP27 binding: unlabeled peptide
T1 construct: from tissue; host or cells: rat brain membrane preparations (E18 whole brain; other ages and regions also dissected)
T1 sequence (P32215 20-523): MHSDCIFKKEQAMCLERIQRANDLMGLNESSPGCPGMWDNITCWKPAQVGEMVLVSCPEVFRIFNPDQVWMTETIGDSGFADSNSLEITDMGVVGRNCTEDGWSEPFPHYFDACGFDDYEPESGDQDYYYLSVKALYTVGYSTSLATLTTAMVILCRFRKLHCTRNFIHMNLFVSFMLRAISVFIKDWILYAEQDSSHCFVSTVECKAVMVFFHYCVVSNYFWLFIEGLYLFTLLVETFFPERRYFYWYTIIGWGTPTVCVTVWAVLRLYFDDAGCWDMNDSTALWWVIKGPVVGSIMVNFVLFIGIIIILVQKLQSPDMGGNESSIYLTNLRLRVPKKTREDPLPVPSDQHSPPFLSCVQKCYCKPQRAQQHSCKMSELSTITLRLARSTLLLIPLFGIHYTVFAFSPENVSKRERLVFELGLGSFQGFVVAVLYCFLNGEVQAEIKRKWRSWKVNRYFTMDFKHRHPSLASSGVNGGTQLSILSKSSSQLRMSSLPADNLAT
From the text: Male CD rats (Charles River Breeding Labs., Wilmington, Mass.) were used throughout this example. The following regions of the brain were dissected at the indicated ages: embryonic day E14 (whole brain); E18 (whole brain, neocortex, hippocampus, and diencephalon); postnatal days P0, P7 and P14 (whole brain, neocortex, hippocampus, diencephalon, and cerebellum); and 1-, 2- and 3-months old (MO) (whole brain, neocortex, hippocampus, diencephalon, and cerebellum). After dissection, each region was immediately frozen on dry-ice and stored at −70 C. for up to 2 months until the receptor and peptide levels were determined. […] Arimura, et al., Endocrinology 129: 2787-2789 (1991). […] Gottschall, et al., Endocrinology 127: 272-277 (1990), and Gottschall, et al., FASEB J 5: 194-199 (1991).
Gottschall, et al., Endocrinology 127: 272-277 (1990) and Gottschall, et al., FASEB J 5: 194-199.

CNS cultures, cAMP = assay: cAMP in CNS cultures at the peptide concentrations that increase neuronal survival; type: cell-based; conditions: 0.1 nM, any CNS culture system
[3] = system: cultured rat astrocytes, intracellular cAMP; assay: cAMP response in cultured rat astrocytes (RIA); type: cell-based; conditions: astrocyte cultures
Method: Astrocytes cultures were prepared from brain of neonatal rats. Astrocytes were allowed to proliferate for 7-10 days before experiments.
(§1) Yada, et al., J. Biol. Chem. 269: 1290-1293 (1994).

Type I PACAP receptor = target: T2, Type I PACAP receptor (Homo sapiens, UniProt P41586); conditions: cited from earlier work
T2 sequence (P41586 21-468): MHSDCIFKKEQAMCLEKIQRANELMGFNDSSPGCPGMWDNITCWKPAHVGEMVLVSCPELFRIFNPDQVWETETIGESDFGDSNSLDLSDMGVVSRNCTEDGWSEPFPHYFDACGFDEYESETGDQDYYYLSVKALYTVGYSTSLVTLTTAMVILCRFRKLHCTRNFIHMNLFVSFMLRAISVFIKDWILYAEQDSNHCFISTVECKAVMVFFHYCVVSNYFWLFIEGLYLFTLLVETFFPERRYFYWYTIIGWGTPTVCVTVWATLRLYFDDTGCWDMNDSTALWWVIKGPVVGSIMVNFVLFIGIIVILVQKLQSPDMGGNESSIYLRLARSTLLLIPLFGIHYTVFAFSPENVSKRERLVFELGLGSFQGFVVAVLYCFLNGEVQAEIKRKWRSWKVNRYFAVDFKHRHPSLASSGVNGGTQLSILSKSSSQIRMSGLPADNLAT

[4] = system: cultured rat neurons, intracellular cAMP; assay: cAMP response in cultured rat neurons (RIA); type: cell-based; conditions: neuron cultures
Method: Neuron cultures were prepared from brains of 1 day-old rats. 1×10^7 cells were plated in each dish (35 mm diameter).
as §1

[5] = system: dissociated hippocampal cultures; conditions: cited from earlier work
[6] = system: motoneurons in the lateral motor column (LMC); assay: Survival of motoneurons in lumbar lateral motor column of chick embryo
Method: Embryos received vehicle, or 5 nM or 25 nM PACAP (concentrations in the egg after injection) daily from E6 to E9. Average LMC is represented by 320-340 sections and cell counts were made on every tenth section. Sum of live cells in all counted sections multiplied by 10 is shown in this figure. Numbers indicate mean numbers of live cells in 6 LMC in each group. Bars indicate SME.
Effect of PACAP on natural neuronal cell death was also examined in chick embryos using similar experimental procedures described by Hamburger and Montalcini. […] Fertilized White Leghorn eggs (Troslow Farms) were incubated at 39 C. at 99% humidity. A small hole was opened at the top of the egg on E3 ½ (Stage 23) by punching with micro-dissecting tweezers. […]
In the lumbar motor column (LMC), intact motoneurons were easily distinguishable from surrounding cells due to their large size and deeply stained perikaryon. Only those neurons with an intact nuclear membrane and at least one visible nucleolus were counted as live cells. Every tenth section of the LMC was counted, and the sum of the sections multiplied by ten to obtain a data point. A total of 6 motor columns was counted in each of the control and experimental groups.

hippocampal CA1 neurons [7] = assay: Forebrain ischemia/reperfusion (four vessel occlusion), hippocampal CA1 neuronal cell death, icv administration
Method: Each column indicates viable cell number 7 days after 15 min ischemia of the forebrain of rats which were intracerebroventricularly administered the vehicle alone or the vehicle containing varying amounts of PACAP38. The numbers of cells are expressed by percentages of live cells as compared with the cells in the same area of the intact rat hippocampus. […] FIGS. 13A-F are microphotographs of coronal sections of the right hippocampal CA1 from intact rats and rats subjected to forebrain ischemia for 15 min. The sections were stained with cresyl violet (A, B, C) and immunostained for MAPII (D, E, F). A, D: Intact rats. B, E: 7 days after ischemia in vehicle-infused (icv) rats. […] PACAP38 administration started immediately after ischemia.
Adult male rats of CD strain weighing 270-300 g body weight (Charles River Breeding labs, Wilmington, Miss.) were used. Under Ketamine anesthesia, the bilateral vertebrate arteries were permanently occluded at the first cervical vertebra by electrocoagulation. Bilateral carotid arteries were exposed and a loop of silicon rubber tubing was placed around each carotid artery, leaving the end of the tubing outside the suture. The animal was left in the laboratory with water, but without food. The following morning, both loops around the carotid arteries were pulled and artery clips were applied on the loops at the portion close to the skin so that both carotid arteries were occluded and ischemia of the brain occurred as long as the clips remained. The clips were removed 15 minutes later. During ischemia, body temperature was monitored by thermometer placed in the rectum and the body temperature was maintained at 37° C. by radiation heat from light bulb. […] Reperfusion of bilateral carotid arteries was assured by direct visual examination. The incision wound was closed.
Soon after the reperfusion of the carotid arteries began, the animal was placed on a stereotaxic instrument, the skull was exposed, and a small hole was made by a dental drill at anterior 0.6 lateral 1.5, vertical 5.0 mm from the bregma and skull surface, and guided cannula (Alza Corp., Palo Alto, Calif.) was inserted into the hole so that the tip of the cannula is in the lateral cerebroventricle and fixed on the skull by dental cement. The incised skin was then closed by suture. Then 10 μl of artificial cerebrospinal fluid (CSF) containing 0.1% bovine serum albumin (ESA) or the vehicle containing varying amounts of PACAP38 was introduced.
PACAP38 was icv infused into the right lateral cerebroventricle of rats having neuronal cell damage in the CA1 of the hippocampus as discussed in example 5. The effect of the icv infusion of PACAP38 on ischemia-induced neuronal cell death in the hippocampal CA1 in rats was measured.

[8] = system: dissociated hippocampal cultures; assay: Prevention of gp120-induced neuronal cell death in dissociated hippocampal cultures; type: cell-based, mice; conditions: 1 pM gp120, five days
Method: The cultures were prepared from 16-17 day-old mice embryos (C57B1/6) as previously described. Brenneman, et al., Nature 335: 639-642 (1988). Before treatment, the cultures were given a complete change of medium. […] Cell counts were conducted on 60 fields, 0.12 mm^2 each. Neurons were identified immunocytochemically using antiserum against neuron specific enolase. Schmechel, et al., Nature 276: 834-836 (1978). Each value is the mean of 3-5 dishes.
Brenneman, et al. Nature 335: 639-642 (1988). […] Brenneman, et al. Nature 335: 639-642 (1988). […] Arimura, et al., Trends Endocr. Metab. 3: 288-294 (1993). Arimura et al., Ann NY Acad. Sci. 739:228-243 (1994).

[9] = system: dorsomedial population of dorsal root ganglia (DRG18); assay: Natural neuronal cell death in dorsal root ganglion DRG18 of chick embryo; conditions: 25 nM in the egg daily E3 1/2 to E8 1/2, counted on E9, p<0.01
Method: The control group received vehicle and the experimental group received PACAP38 (25 nM in the egg) daily from E3 ½ to E8 ½. Number is the mean of the numbers of degenerating cells in 6 ganglia in each group. Bar indicates SEM.
Effect of PACAP on natural neuronal cell death was also examined in chick embryos using similar experimental procedures described by Hamburger and Montalcini. […] Fertilized White Leghorn eggs (Troslow Farms) were incubated at 39 C. at 99% humidity. A small hole was opened at the top of the egg on E3 ½ (Stage 23) by punching with micro-dissecting tweezers. One μl/g of egg weight of sterile Tyrode solution or solution containing 5 μM or 25 μM PACAP38 was administered daily through the hole onto the highly vascularized chorioallantoic membrane from day E3 ½ through E8 ½ in the experiment for dorsal root ganglion (DRG), and from E6 through E9 for lumbar motor column (LMC). […]
The magnification used (×400), one can observe DRG18 divided into two populations of cells: large differentiating ventrolateral (VL) and small, late differentiating dorsomedial (DM) cells. […] Macrophages containing debris of several cells were encountered rarely and counted as two degenerating cells. Every second section of the ganglia was counted, and the sum multiplied by two to obtain a data point. A total of 6 ganglia were counted in each of the control and experimental groups, respectively.

hippocampal CA1 neurons [10] = assay: Forebrain ischemia, hippocampal CA1 neuronal cell death, iv infusion started 24 hrs after ischemia; type: in vivo, rat; conditions: bolus and infusion started 24 hrs after ischemia
Method: FIG. 18 is a graph showing the cytoprotective effect of iv infusion of PACAP38 which started 24 hrs. after ischemia in rats.
(§2) The clips were removed 15 minutes later. […] The incision wound was closed.
Neuronal cell death in CA1 induced by forebrain ischemia progresses slowly. One day after ischemia/reperfusion many viable neurons were still seen in CA1. However, nearly all neurons died one week after ischemia. Therefore, if the administration of PACAP38 is started 24 hrs after ischemia, the treatment could possibly still prevent the slow death of the neurons. To test this hypothesis, a bolus iv injection and subsequent iv infusion of PACAP38 was started 24 hrs after ischemia.

hippocampal CA1 neurons [11] = assay: Forebrain ischemia, hippocampal CA1 neuronal cell death, iv infusion started immediately after ischemia; type: in vivo, rat
Method: as §2
PACAP38 was administered i.v. to rats (see example 5) over one week, starting immediately after ischemia/reperfusion. […] In this experiment, 20 μg/kg (approximately 4 nmol/kg) was given as a bolus iv injection before the infusion began.

[12] = target: T3, PACAP receptor (PACAP binding sites) in rat brain membrane preparations (rat, UniProt P32215 20-523); assay: Scatchard analysis of displacement of 125I-PACAP27, E18 rat brain membranes; reference PACAP27
T3 construct: whole, on cells; Native receptor in crude brain membranes, not a recombinant protein; also called the receptor
T3 sequence (looked up): T1 sequence (P32215 20-523)

^125I-PACAP38
CPM in right hippocampus relative to left [1]: four times greater
radioactivity in left hippocampus [1]: 5 cpm per mg tissue
radioactivity in right hippocampus [1]: 20 cpm per mg tissue

glucagon: structurally related peptide used in binding competition
displacement of 125I-PACAP27 binding [2]: did not displace

VIP: vasoactive intestinal peptide
cAMP response at the concentration that increases neuronal survival (CNS cultures, cAMP): no increases in cAMP
displacement of 125I-PACAP27 binding [2]: did not displace
potency in increasing cellular cAMP, times less potent than PACAP [3]: approximately 1000 times
affinity for Type I PACAP receptor, times less than that of PACAP (Type I PACAP receptor): 1000 times
binding to Type I PACAP receptor (Type I PACAP receptor): do not bind
potency in increasing cellular cAMP, times less potent than PACAP [4]: approximately 1000 times
effect on neuronal death in gp120-treated cultures ([5]; 0.1 nM): prevented neuronal death
effect on neuronal cell death associated with gp120 treatment ([5]; murine hippocampal cultures): potently and completely prevented

PACAP[1-38]-NH2 [PACAP38]
increase in number of motoneurons per motor column ([6]; 5 nM in the egg daily E6 to E9, counted on E10): 7.2%
increase in number of motoneurons per motor column ([6]; 25 nM in the egg daily E6 to E9, counted on E10): 12.5%
most effective continuous icv infusion rate (hippocampal CA1 neurons [7]; after bolus 450 ng/10 μl H2O over 10 min, infusion over seven days, FIG. 12): 45 ng/µL/h
icv dose of maximum cytoprotective effect (bell-shaped dose-response) (hippocampal CA1 neurons [7]; icv infusion into right lateral cerebroventricle over one week, FIG. 16): 1 pmol/h
effect on ischemia-induced neuronal cell death in CA1 (hippocampal CA1 neurons [7]; icv infusion over one week, viable neurons 7 days after ischemia): significantly prevented the neuronal cell death
effect on ischemia-induced cell death in CA1 (histology) (hippocampal CA1 neurons [7]; icv osmotic pump 1 pmol/h over one week, started immediately after ischemia, 7 days): prevented ischemia-induced cell death in CA1
most effective icv dose (hippocampal CA1 neurons [7]; icv over 7 days, 10, 1, 0.1 and 0.01 pmol/h tested, FIG. 14): 1 pmol/h
lower peak of bimodal dose-response curve of cytoprotection [8]: 0.1 pM
upper peak of bimodal dose-response curve of cytoprotection [8]: 0.1 nM
affinity for the receptor relative to PACAP27 (higher) [2]: about 10 fold
displacement of 125I-PACAP27 binding [2]: more effectively than did PACAP27
number of degenerating cells less than in untreated embryos [9]: 37.2%
effect on ischemia-induced neuronal cell death in CA1 (hippocampal CA1 neurons [10]; iv 16 pmol/hr): significantly (<0.01) attenuated brain cell death
effect on ischemia-induced neuronal cell death in CA1 (hippocampal CA1 neurons [10]; iv 160 pmol/hr): significantly (<0.01) attenuated brain cell death
effect on ischemia-induced neuronal cell death in CA1 (hippocampal CA1 neurons [11]; iv 16 pmol/hr over one week after 20 μg/kg iv bolus): attenuated neuronal cell death significantly
effect on ischemia-induced neuronal cell death in CA1 (hippocampal CA1 neurons [11]; iv 160 pmol/hr over one week after 20 μg/kg iv bolus): attenuated neuronal cell death significantly

GHRH: structurally related peptide used in binding competition
displacement of 125I-PACAP27 binding [2]: did not displace

secretin: structurally related peptide used in binding competition
displacement of 125I-PACAP27 binding [2]: did not displace

B1: Pituitary adenylate cyclase activating polypeptide, complete form with 38 amino acids (PACAP38) (peptide)
peptide: HSDGIFTDSYSRYRKQMAVKKYLAAVLGKRYKQRVKNK-NH2
notes: Synthetic peptide made by solid phase synthesis; also called PACAP[1-38]-NH2; unlabeled PACAP38
fold higher affinity than PACAP27 [12]: ~10 fold
